In the Kinase Knowledgebase extract (Sharma et al. 2016):

Legend:
EGFR (murine) = EGFR (murine) (UniProt P00533); conditions: balb/mk cells
EGFR (human) [1] = molecular target: EGFR (human) (UniProt P00533); conditions: a431
EGFR = EGFR (UniProt P00533)
EGFR (human) [2] = molecular target: EGFR (human) (UniProt P00533); conditions: a431, concentration not given here

Sequence of EGFR (human) (P00533 whole entry, looked up): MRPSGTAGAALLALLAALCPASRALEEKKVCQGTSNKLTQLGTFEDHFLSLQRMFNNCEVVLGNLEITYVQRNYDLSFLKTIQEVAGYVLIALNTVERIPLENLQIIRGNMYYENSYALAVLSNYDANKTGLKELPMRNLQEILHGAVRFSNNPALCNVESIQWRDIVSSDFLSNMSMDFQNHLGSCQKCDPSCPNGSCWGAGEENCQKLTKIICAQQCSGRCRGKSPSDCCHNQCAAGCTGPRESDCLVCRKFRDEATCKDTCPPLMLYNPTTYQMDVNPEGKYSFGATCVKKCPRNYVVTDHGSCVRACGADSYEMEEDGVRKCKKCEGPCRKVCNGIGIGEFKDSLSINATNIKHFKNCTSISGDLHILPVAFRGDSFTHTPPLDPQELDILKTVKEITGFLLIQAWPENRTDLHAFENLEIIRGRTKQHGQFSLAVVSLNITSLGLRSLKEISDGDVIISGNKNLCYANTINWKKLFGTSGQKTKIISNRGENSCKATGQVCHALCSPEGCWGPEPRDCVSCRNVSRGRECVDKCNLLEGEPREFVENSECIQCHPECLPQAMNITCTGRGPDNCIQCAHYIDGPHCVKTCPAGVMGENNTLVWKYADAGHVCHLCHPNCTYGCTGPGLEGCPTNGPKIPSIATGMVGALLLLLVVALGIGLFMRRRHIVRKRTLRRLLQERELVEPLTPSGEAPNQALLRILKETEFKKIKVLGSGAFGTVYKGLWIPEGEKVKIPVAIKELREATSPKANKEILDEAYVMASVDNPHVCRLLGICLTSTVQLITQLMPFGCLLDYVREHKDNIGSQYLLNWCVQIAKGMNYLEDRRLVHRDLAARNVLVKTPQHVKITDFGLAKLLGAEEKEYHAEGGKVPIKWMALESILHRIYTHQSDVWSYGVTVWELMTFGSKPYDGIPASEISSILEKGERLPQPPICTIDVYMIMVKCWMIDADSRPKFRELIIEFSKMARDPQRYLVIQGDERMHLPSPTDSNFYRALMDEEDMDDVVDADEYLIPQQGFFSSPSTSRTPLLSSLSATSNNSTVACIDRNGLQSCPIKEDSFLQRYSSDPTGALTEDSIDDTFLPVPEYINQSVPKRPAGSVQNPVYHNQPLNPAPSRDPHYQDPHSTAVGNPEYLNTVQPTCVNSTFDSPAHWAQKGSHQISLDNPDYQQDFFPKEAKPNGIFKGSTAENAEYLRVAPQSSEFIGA
Sequence of EGFR (murine) (P00533 whole entry, looked up): as above
Sequence of EGFR (P00533 whole entry, looked up): as above

Row | Compound | IC50 (EGFR (murine)) [µM] | IC50 (EGFR (human) [1]) [µM] | further results
1 | C=C(CN(C)C)C(=O)c1ccccc1 |  | > 100 | 
2 | CN(C)CCCC(=O)c1ccc(OCc2ccccc2)cc1 | > 50 |  | 
3 | C=C(CN1CCN(C)CC1)C(=O)c1ccc(OCc2ccccc2)cc1 | 0.95 | > 100 | IC50 (EGFR): 1.5 µM
4 | N#CC(C#N)=Cc1cc(O)c(O)c(O)c1 | 31.1 |  | IC50 (EGFR): 70 µM
5 | C=C(CN1CCCCC1)C(=O)c1ccc(OCc2ccccc2)cc1 |  | > 100 | 
6 | C=C(CN1CCOCC1)C(=O)c1ccc(OCc2ccccc2)cc1 |  |  | inhibition (EGFR (human) [2]): 100%

More lines, main results first:

Row | IC50 (EGFR (murine)) [µM] | IC50 (EGFR (human) [1]) [µM] | Compound | further results
7 | > 50 |  | C=C(CN(C)C)C(=O)c1ccc(OS(=O)(=O)c2ccc(C(=O)O)cc2)cc1 | 
8 |  | > 100 | CN(C)CCC(=O)c1ccc(OCc2ccccc2)cc1 | 
9 |  | > 100 | C=C(CN(C)C)C(=O)c1ccc(OCc2ccccc2)c(O)c1 | 
10 |  | > 100 | CCOC(=O)C1CCN(CCC(=O)c2ccc(OCc3ccccc3)cc2)CC1 | 
11 |  | > 100 | O=C(CCN1CCOCC1)c1ccc(OCc2ccccc2)cc1 | 
12 | > 50 |  | CC(CN(C)C)C(=O)c1ccc(OS(=O)(=O)c2ccc(C(=O)O)cc2)cc1 (stereo not given) | 
